The values that follow are results of earlier work, collected in patent publication US7109337B2, “Pyrimidine derivatives for the treatment of abnormal cell growth” (Pfizer Inc, priority 2002, dated 2006).

The structures appear in SMILES notation.

Data set [1] concerns another carcinoma that does not express the EGF receptor.
The test system of data set [2] is transplanted human mammary carcinoma that expresses epidermal growth factor receptor tyrosine kinase (EGFR). The following applies: athymic nude mice.

With `O=CN/C=C/c1cc(O)ccc1O` [erbstatin], in data set [1], the “growth of another carcinoma” value is on record as “without effect on the growth”. In data set [2], the “growth of transplanted human mammary carcinoma” value is “selectively attenuates the growth”.
